Data as given in patent US8933195B2, “Histone deacetylase inhibitors and synthetic method thereof and use thereof in manufacture of medicaments” (Nanjing Yoko Biomedical R & D Ltd., priority 2011, dated 2015).
Values belong to the molecule of their own block, whether it stands above or below them.

Legend:
HDAC1 = HDAC1 (Homo sapiens, UniProt Q13547); assay: Measurement of biochemical activities of HDAC (fluorescently-labeled acetylated lysine substrate); conditions: read-out: IC50 HDAC1
Outline: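 For both HDAC isoforms, fluorescent acetyl-lysine substrate ([…] in reaction) incubated with enzyme and compounds for 30 min at 37; developer then added for 15 min at room temperature. Fluorescence read at excitation 360 nm, emission 460 nm.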

[1] = system: DU145 (human prostate cancer cells); assay: MTT cancer cell growth inhibition; format: cell-based; conditions: DU-145, 72 h
Outline: (§1)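 Cells seeded at 1500 per well in DMEM or RPMI 1640 with 10% FBS, cultured overnight at 37 °C, 5% CO2, then exposed to compound at 10^−5–10^−10 M final (0.1% DMSO) for 72 h. MTT added for 4 h, formazan dissolved in DMSO, absorbance read at 570 nm to give survival rate.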

[2] = system: MOLT-4 (human acute lymphoblastic leukemia cells); assay: MTT cancer cell growth inhibition; format: cell-based; conditions: 72 h
Outline: as §1

Incap = assay: MTT cancer cell growth inhibition; format: cell-based; conditions: 72 h
[3] = system: human colon cancer HCT-116; assay: Subcutaneously transplanted tumors in nude mice; format: in vivo, BALB/cA nude mice; design: key to RTV (mean ± SD): RTV = Vt/V0, tumor volume at time t over volume at d0; conditions: for RTV (mean ± SD) / TV (mean ± SD) d21: d21
Procedure: The solvents are isopropanol and anhydrous ethanol (mixed in the volume ratio of 1:1). The test sample is dissolved with solvents and physiological saline in the ratio of 1:1 for use, and the above solvents and physiological saline are dissolved in the ratio of 1:1 as a negative control.
The number of mice in each group: 12 mice in the negative control group, and 6 mice in the administration group.
The cell strains are inoculated to the right axilla subcutaneous layer of the nude mice, with 5×10^6 per mouse. After formed, the transplanted tumors are passed down two generations in the nude mice and then used.
Tumor tissues in the vigorous growth period are cut into about 1.5 mm^3, and inoculated to the right axilla subcutaneous layer of the nude mice under aseptic conditions. For the subcutaneously transplanted tumors of the nude mice, the diameter of the transplanted tumors is measured by a vernier caliper. The mice are randomly grouped after the tumors grow to 100-200 mm^3. […] The diameter of the transplanted tumors is measured twice per week in the whole experimental process, and meanwhile the weight of the mice is weighed. The calculation formula of tumor volume (TV) is TV=½×a×b^2, where a and b represent length and width, respectively.
The relative tumor volume (RTV) is calculated according to the measured results, with the following calculation formula: RTV=Vt/V0, where V0 is the tumor volume obtained by measurement during administration in different cages (i.e., d0), Vt is the tumor volume obtained by measurement at each time. […] (Wc−WT)Wc×100%, where Wc is the tumor weight of the control group, and WT is the tumor weight of the treatment group.

[4] = Table 2.1, 20 mg/kg q3d × 3w iv

HDAC1, sequence (Q13547 whole entry, species assumed, canonical isoform): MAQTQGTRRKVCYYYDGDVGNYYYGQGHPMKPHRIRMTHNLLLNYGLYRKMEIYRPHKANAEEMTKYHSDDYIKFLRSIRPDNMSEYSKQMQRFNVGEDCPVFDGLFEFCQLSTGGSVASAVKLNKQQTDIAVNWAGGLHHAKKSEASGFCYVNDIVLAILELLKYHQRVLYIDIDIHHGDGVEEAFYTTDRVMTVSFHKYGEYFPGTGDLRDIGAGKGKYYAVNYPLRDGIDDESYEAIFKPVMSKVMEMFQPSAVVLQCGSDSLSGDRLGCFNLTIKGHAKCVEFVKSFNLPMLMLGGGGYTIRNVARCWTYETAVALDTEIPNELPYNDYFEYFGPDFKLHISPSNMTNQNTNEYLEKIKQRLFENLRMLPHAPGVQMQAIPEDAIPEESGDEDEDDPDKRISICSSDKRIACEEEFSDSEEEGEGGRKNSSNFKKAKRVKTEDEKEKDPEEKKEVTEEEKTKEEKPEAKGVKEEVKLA

IC50 (HDAC1): < 10000 nM | GI50 [1]: 20 nM | GI50 [2]: 100 nM | GI50 (Incap): 500 nM | Weight d0 [3, 4]: 16.6 g | Weight (mean ± SD) d 0 ([3]; Table 2.3, 20 mg/kg): 16.6 ± 1.1 g | Weight (mean ± SD) d 3 ([3]; Table 2.3, 20 mg/kg): 15.9 ± 0.7 g | Weight (mean ± SD) d 7 ([3]; Table 2.3, 20 mg/kg): 15.1 ± 0.9 g | Weight (mean ± SD) d 10 ([3]; Table 2.3, 20 mg/kg): 14.5 ± 1.2 g | Weight (mean ± SD) d 14 ([3]; Table 2.3, 20 mg/kg): 14.0 ± 1.0 g | Weight (mean ± SD) d 17 ([3]; Table 2.3, 20 mg/kg): 13.5 ± 1.0 g | Weight (mean ± SD) d 21 ([3]; Table 2.3, 20 mg/kg): 13.2 ± 1.0 g
SMILES: C/C=C1\NC(=O)c2csc(n2)CNC(=O)C[C@@H](/C=C/CCSC(=O)CCCCCCC)OC(=O)[C@H](Cc2ccccc2)NC1=O [Compound 1-7]
1-T/C tumor inhibition rate ([3]; Table 2.1, 20 mg/kg q3d × 3w iv, after three weeks): 72.24% | TV (mean ± SD) d0 [3, 4]: 115 ± 20 mm^3 | RTV (mean ± SD) [3, 4]: 2.89 ± 1.62 | TV (mean ± SD) d21 [3, 4]: 332 ± 186 mm^3 | Tumor Volume TV (mean ± SD) d 0 ([3]; Table 2.2, 20 mg/kg): 116 ± 21 mm^3 | Tumor Volume TV (mean ± SD) d 3 ([3]; Table 2.2, 20 mg/kg): 131 ± 11 mm^3 | Tumor Volume TV (mean ± SD) d 7 ([3]; Table 2.2, 20 mg/kg): 158 ± 26 mm^3 | Tumor Volume TV (mean ± SD) d 10 ([3]; Table 2.2, 20 mg/kg): 199 ± 68 mm^3 | Tumor Volume TV (mean ± SD) d 14 ([3]; Table 2.2, 20 mg/kg): 245 ± 107 mm^3 | Tumor Volume TV (mean ± SD) d 17 ([3]; Table 2.2, 20 mg/kg): 275 ± 132 mm^3

SMILES: O=C(CCCCCCC(=O)Nc1ccccc1)NO [SAHA, suberoylanilide hydroxamic acid, reference compound]
GI50 (Incap): 4560 nM | TV (mean ± SD) d0 ([3]; Table 1.1, 50 mg/kg qd × 3w iv): 116 ± 27 mm^3 | Weight d0 ([3]; Table 1.1, 50 mg/kg qd × 3w iv): 16.6 g | RTV (mean ± SD) ([3]; Table 1.1, 50 mg/kg qd × 3w iv): 4.87 ± 1.68 | TV (mean ± SD) d21 ([3]; Table 1.1, 50 mg/kg qd × 3w iv): 566 ± 221 mm^3 | Tumor Volume TV (mean ± SD) d 0 ([3]; Table 1.2, 50 mg/kg): 116 ± 27 mm^3 | Tumor Volume TV (mean ± SD) d 3 ([3]; Table 1.2, 50 mg/kg): 146 ± 38 mm^3 | Tumor Volume TV (mean ± SD) d 7 ([3]; Table 1.2, 50 mg/kg): 191 ± 25 mm^3 | Tumor Volume TV (mean ± SD) d 10 ([3]; Table 1.2, 50 mg/kg): 283 ± 41 mm^3 | Tumor Volume TV (mean ± SD) d 14 ([3]; Table 1.2, 50 mg/kg): 326 ± 45 mm^3 | Tumor Volume TV (mean ± SD) d 17 ([3]; Table 1.2, 50 mg/kg): 417 ± 140 mm^3 | Weight (mean ± SD) d 0 ([3]; Table 1.3, 50 mg/kg): 16.6 ± 1.5 g | Weight (mean ± SD) d 3 ([3]; Table 1.3, 50 mg/kg): 15.9 ± 1.5 g | Weight (mean ± SD) d 7 ([3]; Table 1.3, 50 mg/kg): 14.9 ± 1.8 g | Weight (mean ± SD) d 10 ([3]; Table 1.3, 50 mg/kg): 14.6 ± 1.4 g | Weight (mean ± SD) d 14 ([3]; Table 1.3, 50 mg/kg): 14.1 ± 1.3 g | Weight (mean ± SD) d 17 ([3]; Table 1.3, 50 mg/kg): 13.6 ± 1.3 g | Weight (mean ± SD) d 21 ([3]; Table 1.3, 50 mg/kg): 13.3 ± 1.1 g | TV (mean ± SD) d0 ([3]; Table 2.1, 50 mg/kg qd × 3w iv): 118 ± 25 mm^3 | Weight d0 ([3]; Table 2.1, 50 mg/kg qd × 3w iv): 16.9 g | RTV (mean ± SD) ([3]; Table 2.1, 50 mg/kg qd × 3w iv): 4.54 ± 1.72 | TV (mean ± SD) d21 ([3]; Table 2.1, 50 mg/kg qd × 3w iv): 536 ± 203 mm^3 | Tumor Volume TV (mean ± SD) d 0 ([3]; Table 2.2, 50 mg/kg): 120 ± 25 mm^3 | Tumor Volume TV (mean ± SD) d 3 ([3]; Table 2.2, 50 mg/kg): 146 ± 36 mm^3 | Tumor Volume TV (mean ± SD) d 7 ([3]; Table 2.2, 50 mg/kg): 189 ± 20 mm^3 | Tumor Volume TV (mean ± SD) d 10 ([3]; Table 2.2, 50 mg/kg): 263 ± 33 mm^3 | Tumor Volume TV (mean ± SD) d 14 ([3]; Table 2.2, 50 mg/kg): 300 ± 35 mm^3 | Tumor Volume TV (mean ± SD) d 17 ([3]; Table 2.2, 50 mg/kg): 402 ± 146 mm^3 | Weight (mean ± SD) d 0 ([3]; Table 2.3, 50 mg/kg): 16.8 ± 1.0 g | Weight (mean ± SD) d 3 ([3]; Table 2.3, 50 mg/kg): 15.7 ± 1.2 g | Weight (mean ± SD) d 7 ([3]; Table 2.3, 50 mg/kg): 14.9 ± 1.6 g | Weight (mean ± SD) d 10 ([3]; Table 2.3, 50 mg/kg): 14.6 ± 1.5 g | Weight (mean ± SD) d 14 ([3]; Table 2.3, 50 mg/kg): 14.2 ± 1.4 g | Weight (mean ± SD) d 17 ([3]; Table 2.3, 50 mg/kg): 13.8 ± 1.3 g | Weight (mean ± SD) d 21 ([3]; Table 2.3, 50 mg/kg): 13.4 ± 1.1 g
